pIC50: −log10 of the molar value.
Test system: PP5 mRNA
Test: Northern blot analysis of PP5 mRNA expression in A549 cells
Type: cell-based, human
Parameters: key to Activity class in initial screen (PP5 mRNA reduction): oligonucleotides giving a reduction of PP5 mRNA of approximately 50% or greater were considered active
Conditions: for Percent Inhibition of PP5 mRNA / Activity class in initial screen (PP5 mRNA reduction): 300 nM oligonucleotide; for Percent Inhibition of PP5 mRNA: four hours, lipofectin, approximate, compared to control
From the text: The oligonucleotides shown in Table 1 were designed using the Genbank sequences HSSERTHRP (Genbank accession number X92121), HSRNAPPP5 (Genbank accession number X89416) and PPP5C (Genbank accession number U25174), synthesized and tested for inhibition of PP5 mRNA expression in A549 cells using a Northern blot assay. All oligonucleotides shown in Table 1 are chimeric oligonucleotides with central 2'-deoxy "gaps," which have phosphorothioate backbones, flanked on both sides by 2'-methoxyethoxy (2'-MOE) "wings" (shown in bold), which have phosphodiester backbones. All cytosines in the 2'-MOE wings are 5-methylcytosines.
In the initial screen, A549 cells were treated with oligonucleotides at a concentration of 300 nM oligonucleotide for four hours in the presence of […] lipofectin. Results were normalized and expressed as a percent of control. The effect of each oligonucleotide on levels of PP5 mRNA, expressed as approximate percent inhibition compared to control, is shown in Table 1. In this initial screen, oligonucleotides giving a reduction of PP5 mRNA of approximately 50% or greater were considered active. […] These sequences (SEQ ID NO: 1, 2, 3, 4, 6, 7 and 12, respectively, SEQ ID Nos shown in bold in Table 1) are therefore preferred.
These oligonucleotides were tested for their ability to reduce PP5 mRNA levels in A549 cells, using oligonucleotide doses of 25 to 500 nM.
The human lung tumor cell line A549 was obtained from the American Type Culture Collection (Rockville Md.) and were grown in DMEM (Gibco BRL, Gaithersburg Md.), supplemented with 10% fetal calf. Cells were seeded on 60 mm plates. When they reached 70% confluency, they were washed with DMEM and 1 ml of DMEM containing 15 μg/ml DOTMA/DOPE (Lipofectin®, GIBCO-BRL) and oligonucleotide at desired concentration was added. Duplicate dishes were used for each treatment condition. After 4 hours of treatment at 37°, cells were washed and cultured in fresh DMEM containing 10% fetal bovine serum for an additional 17 hours. Cells were then harvested and total RNA was extracted with TRIzol Reagent (GIBCO-BRL) according to manufacturer's protocol. Total RNA (20 μg) was fractionated on a 1% agarose gel containing formaldehyde, and transferred to a DURLON-UV (Stratagene) nylon membrane. Following UV crosslinking, the filters were hybridized with the appropriate protein phosphatase probe. The ^32 P-labeled human PP cDNA probes are generated with DECAPrime® DNA Labeling Kit (Ambion) according to the manufacturer's protocol. Hybridization was performed in a hybridization solution containing 50% formamide at 42° for 16 hours. This was followed by two low stringency washes (2×SSC) at room temperature and two high stringency washes (0.1×SSC/0.5% SDS) at 55° C. Hybridization signals were visualized by autoradiography, and filters were then stripped and reprobed with a ^32 P-labeled glyceraldehyde-3-phosphate dehydrogenase (GAPDH) probe to confirm equal loading. The densities of hybridization signals were measured with the NIH Image program (ImagePC).
The cells were harvested, and total RNA was extracted with TRIzol® Reagent according to the methods of the manufacturer. Total RNA (20 μg) was fractionated on 1% agarose gels containing formaldehyde and transferred to DURLON-UV nylon membranes (Stratagene). Following UV cross-linking, the filters were hybridized with a [α^32 P]probe for human PP5. The human PP5 cDNA probe was generated from the full length coding region of PP5 and [α^32 P]-dATP was labeled with DECAprime® DNA Labeling Kit according to the manufacturer's protocol. Hybridization was performed in the presence of 50% formamide, 0.1 M Pipes, 0.8 M NaCl, 5×Denhardt's solution, 100 μg/ml denatured herring sperm DNA, 1×10^6 cpm/ml [α-^32 P]-labeled probe and 10% dextran sulfate at 42° C. for 16 hours. Following hybridization, the membrane was subjected to two low stringency washes (2×SSC) at room temperature and then two high stringency washes (0.1×SSC/0.5% SDS) at 55° C. […]

ISIS 14505: chimeric 2'-MOE/deoxy gap antisense oligonucleotide to human PP5, 3' UTR; CCCAGCCTAGCCCCACCATG, SEQ ID NO: 13 (sugars by position and backbone not given here; chimeric 2'-MOE wings with deoxy gap)
Percent Inhibition of PP5 mRNA: 23%

ISIS 14498: chimeric 2'-MOE/deoxy gap antisense oligonucleotide to human PP5, coding; GTACTTGGCCTTCACCTCAC, SEQ ID NO: 6 (sugars by position and backbone not given here; chimeric 2'-MOE wings with deoxy gap)
Activity class in initial screen (PP5 mRNA reduction): active

ISIS 14499: chimeric 2'-MOE/deoxy gap antisense oligonucleotide to human PP5, coding; CCAGGTTGTTCTCTTCCAAG, SEQ ID NO: 7 (sugars by position and backbone not given here; chimeric 2'-MOE wings with deoxy gap)
Activity class in initial screen (PP5 mRNA reduction): active
Percent Inhibition of PP5 mRNA: 62%

ISIS 14503: chimeric 2'-MOE/deoxy gap antisense oligonucleotide to human PP5, 3' UTR; GCCCCAGCTGCTCCACCTCC, SEQ ID NO: 11 (sugars by position and backbone not given here; chimeric 2'-MOE wings with deoxy gap)
Percent Inhibition of PP5 mRNA: 27%

ISIS 14496: chimeric 2'-MOE/deoxy gap antisense oligonucleotide to human PP5, coding; CCGCTGTACTCATCCTCAAT, SEQ ID NO: 4 (sugars by position and backbone not given here; chimeric 2'-MOE wings with deoxy gap)
Activity class in initial screen (PP5 mRNA reduction): active
Percent Inhibition of PP5 mRNA: 54%

ISIS 14500: chimeric 2'-MOE/deoxy gap antisense oligonucleotide to human PP5, coding; AGAGCCCTGGAGGTGGATGT, SEQ ID NO: 8 (sugars by position and backbone not given here; chimeric 2'-MOE wings with deoxy gap)
Percent Inhibition of PP5 mRNA: 41%

ISIS 14502: chimeric 2'-MOE/deoxy gap antisense oligonucleotide to human PP5, 3' UTR; CCTACCCCCTCTGCAAACCT, SEQ ID NO: 10 (sugars by position and backbone not given here; chimeric 2'-MOE wings with deoxy gap)
Percent Inhibition of PP5 mRNA: 40%

ISIS 15523: chimeric PP5 antisense oligonucleotide, wider deoxy gap, uniformly phosphorothioate; GGGCCCTATTGCTTGAGTGG, SEQ ID NO: 12 (all phosphorothioate, sugars by position and methylation of C not given here; chimeric with deoxy gap)
pIC50 (doses of 25 to 500 nM, read-out: IC50 for reduction of PP5 mRNA levels): ~7.00

ISIS 14504: chimeric 2'-MOE/deoxy gap antisense oligonucleotide to human PP5, 3' UTR; GGGCCCTATTGCTTGAGTGG, SEQ ID NO: 12 (sugars by position and backbone not given here; chimeric 2'-MOE wings with deoxy gap)
Activity class in initial screen (PP5 mRNA reduction): active

ISIS 14495: chimeric 2'-MOE/deoxy gap antisense oligonucleotide to human PP5, coding; GTAGGCCAGGCTGCGGTTGC, SEQ ID NO: 3 (sugars by position and backbone not given here; chimeric 2'-MOE wings with deoxy gap)
Activity class in initial screen (PP5 mRNA reduction): active
Percent Inhibition of PP5 mRNA: 66%

ISIS 14501: chimeric 2'-MOE/deoxy gap antisense oligonucleotide to human PP5, stop codon; CGCCCCGCCCGTCACCTCAC, SEQ ID NO: 9 (sugars by position and backbone not given here; chimeric 2'-MOE wings with deoxy gap)
Percent Inhibition of PP5 mRNA: 42%

ISIS 14497: chimeric 2'-MOE/deoxy gap antisense oligonucleotide to human PP5, coding; TCCCCACATACTGTAATCTT, SEQ ID NO: 5 (sugars by position and backbone not given here; chimeric 2'-MOE wings with deoxy gap)
Percent Inhibition of PP5 mRNA: 11%

ISIS 14493: chimeric 2'-MOE/deoxy gap antisense oligonucleotide to human PP5, AUG; TCGCCCTCCGCCATCGCCAT, SEQ ID NO: 1 (sugars by position and backbone not given here; chimeric 2'-MOE wings with deoxy gap)
Activity class in initial screen (PP5 mRNA reduction): active

ISIS 14494: chimeric 2'-MOE/deoxy gap antisense oligonucleotide to human PP5, coding; TTCAGAGCTCCATCAGCCGG, SEQ ID NO: 2 (sugars by position and backbone not given here; chimeric 2'-MOE wings with deoxy gap)
Activity class in initial screen (PP5 mRNA reduction): active
Percent Inhibition of PP5 mRNA: 52%

From patent US6235891A, “Glucocorticoid receptor agonist and decreased PP5” (South Alabama Medical Science Foundation, priority 1999, dated 2001)
